Measured values as given in US12522587B2, “Cancer treatments targeting cancer stem cells” (Remedy Plan, Inc., priority 2018, dated 2026).

Tested on: AGS human gastric adenocarcinoma cells
Assay: Human microarray study (Affymetrix Clariom S) of treated AGS cells
Assay type: cell-based
Details: two days, positive = downregulated
Method: AGS human gastric adenocarcinoma cells were treated with compound I-1, or DMSO alone (as a negative control) for two days. After two days, RNA was isolated from compound I-1 treated cells and DMSO treated cells, in duplicate, and subjected to microarray analysis using AFFYMETRIX CLARIOM S microarrays. Data were represented as fold change relative to the compound I-1 treated cells, negative values represented genes that were on higher in compound I-1 treated cells than in DMSO treated cells, and positive values represented genes that were on higher in DMSO treated cells than in compound I-1 treated cells. Values were averaged for the duplicate samples. We included data for the genes whose expression was altered by more than 3 fold, either up or down, in response to compound I-1.
Negative numbers indicate fold upregulation upon drug treatment. Positive numbers indicate fold downregulation upon drug treatment. […] In addition, Chac1, PCK2, and SLC7A11 were all shown to have a tumor promoting activity and to be associated with the more dangerous and lethal forms of cancer, and these three genes were the three most strongly repressed genes measured in this analysis. There were other examples in the data that supported this model, but the overall model was that compound I-1 increased the expression of tumor suppressor genes, and decreased the expression of tumor promoting genes.

Compound: CCC(=O)N1CCc2cc(-c3ccc(C(=O)NCc4cccnc4)cc3)ccc21 [Compound I-1]
- Fold Change CEBPG: 3.29 fold
- Fold Change CHAC1: 43.64 fold
- Fold Change CRNDE: 7.6 fold
- Fold Change CTH: 12.23 fold
- Fold Change CTNS: 3.16 fold
- Fold Change CYP1A1: 12.34 fold
- Fold Change DCLRE1A: 3.36 fold
- Fold Change DDIT3: 3.76 fold
- Fold Change DDIT4: 14.73 fold
- Fold Change DEPTOR: 3.05 fold
- Fold Change DMBT1: 3.25 fold
- Fold Change EEF2KMT: 4.01 fold
- Fold Change EFHC1: 3.67 fold
- Fold Change EIF4EBP1: 6.66 fold
- Fold Change ERICH2: 3.35 fold
- Fold Change EXOSC8: 3.68 fold
- Fold Change FAIM: 3.09 fold
- Fold Change FAM27E3: 4.39 fold
- Fold Change FAM86B1: 3.53 fold
- Fold Change FAM86C1: 3.18 fold
- Fold Change FAM111B: 3.46 fold
- Fold Change FAM216A: 3 fold
- Fold Change FIGNL1: 4.84 fold
- Fold Change FILIP1L: 3.7 fold
- Fold Change FUT1: 3.48 fold
- Fold Change GARS: 3.24 fold
- Fold Change GEN1: 3.39 fold
- Fold Change GPX8: 3.7 fold
- Fold Change GRB10: 3.1 fold
- Fold Change GSTM2: 3.25 fold
- Fold Change GSTM4: 4.02 fold
- Fold Change GTPBP2: 4.3 fold
- Fold Change H1F0: 3.59 fold
- Fold Change HAX1: 3.68 fold
- Fold Change HIST1H1B: 4.91 fold
- Fold Change HIST1H1C: 4.26 fold
- Fold Change HIST1H1D: 5.18 fold
- Fold Change HIST1H1E: 3.75 fold
- Fold Change HIST1H2AB: 6.88 fold
- Fold Change HIST1H2AE: 5.92 fold
- Fold Change HIST1H2AG: 5.06 fold
- Fold Change HIST1H2AI: 5.81 fold
- Fold Change HIST1H2AJ: 3.77 fold
- Fold Change HIST1H2AK: 3.52 fold
- Fold Change HIST1H2AL; HIST1H2BN: 3.72 fold
- Fold Change HIST1H2AM; HIST1H3J: 6.91 fold
- Fold Change HIST1H2BB: 3.09 fold
- Fold Change HIST1H2BE: 3.05 fold
- Fold Change HIST1H2BF: 3.75 fold
- Fold Change HIST1H2BG: 3.8 fold
- Fold Change HIST1H2BH: 3.09 fold
- Fold Change HIST1H2BI: 8.02 fold
- Fold Change HIST1H2BJ: 4.83 fold
- Fold Change HIST1H2BK: 3.06 fold
- Fold Change HIST1H2BL: 5.51 fold
- Fold Change HIST1H2BM: 12.33 fold
- Fold Change HIST1H3A: 3.04 fold
- Fold Change HIST1H3B: 5.94 fold
- Fold Change HIST1H3D; HIST1H2AD: 4.82 fold
- Fold Change HIST1H3F: 6.21 fold
- Fold Change HIST1H3G: 9.34 fold
- Fold Change HIST1H3H: 7.63 fold
- Fold Change HIST1H3I: 4.49 fold
- Fold Change HIST1H4A: 5.75 fold
- Fold Change HIST1H4D: 3.02 fold
- Fold Change HIST1H4H: 3.25 fold
- Fold Change HIST2H2AA3; HIST2H2AA4: 3.2 fold
- Fold Change HIST2H2AA4; HIST2H2AA3: 3.08 fold
- Fold Change HIST2H3A: 10.31 fold
- Fold Change HIST2H3A; HIST2H3C: 8.95 fold
- Fold Change HIST2H3D: 4.21 fold
- Fold Change HIST2H4A; HIST2H4B: 3.94 fold
- Fold Change HIST2H4B; HIST2H4A: 3.79 fold
- Fold Change HMMR: 4.62 fold
- Fold Change HOXB9: 5.66 fold
- Fold Change IARS: 3.29 fold
- Fold Change IFRD1: 6.11 fold
- Fold Change IFT88: 4.63 fold
- Fold Change IGF2BP3: 5.34 fold
- Fold Change IL20RB: 4.75 fold
- Fold Change INHBE: 12.74 fold
- Fold Change IRAK1BP1: 3.59 fold
- Fold Change IZUMO1: 4.5 fold
- Fold Change JDP2: 4.94 fold
- Fold Change KIF15: 3.66 fold
- Fold Change KIF21B: 3.52 fold
- Fold Change KLHL5: 3.17 fold
- Fold Change LGALS4: 3.06 fold
- Fold Change LMO4: 3.1 fold
- Fold Change LRRC8D: 3.82 fold
- Fold Change LYRM7: 3.58 fold
- Fold Change MARS; MIR6758: 3.79 fold
- Fold Change MAT2A: 5.04 fold
- Fold Change MB21D2: 4.66 fold
- Fold Change METTL4: 4.39 fold
- Fold Change MINA: 3.05 fold
- Fold Change MIR17HG; MIR17; MIR18A; MIR19A; MIR19B1; MIR20A; MIR92A1: 3.18 fold
- Fold Change MOCOS: 5.87 fold
- Fold Change MTHFD2: 3.26 fold
- Fold Change NCOA5: 3 fold
- Fold Change NCOA7: 3.2 fold
- Fold Change NEDD4: 3.11 fold
- Fold Change NOX1: 6.01 fold
- Fold Change NPIPA2: 3.06 fold
- Fold Change NPIPA3: 3.17 fold
- Fold Change NPIPA5: 3.15 fold
- Fold Change NPIPA7; NPIPA8; PKD1P1: 3.01 fold
- Fold Change NPIPA8: 3.2 fold
- Fold Change NUPR1: 5.76 fold
- Fold Change ORAOV1: 3.3 fold
- Fold Change PCK2: 17.83 fold
- Fold Change PDK1: 3.5 fold
- Fold Change PHLDB2; PLCXD2: 3.75 fold
- Fold Change PKD1; MIR6511B2; MIR6511B1: 3.36 fold
- Fold Change PKD2: 3.76 fold
- Fold Change PKDCC: 3.89 fold
- Fold Change PRIM1: 4.42 fold
- Fold Change PSAT1: 7.92 fold
- Fold Change PSPH: 4.23 fold
- Fold Change PTER: 3.93 fold
- Fold Change PTPRB: 3.96 fold
- Fold Change PYROXD1: 3.74 fold
- Fold Change RASGRP3: 3.19 fold
- Fold Change RASIP1: 3.21 fold
- Fold Change RBBP9: 3.05 fold
- Fold Change RBCK1: 4.36 fold
- Fold Change REG4: 3.04 fold
- Fold Change RFXAP: 4.14 fold
- Fold Change RNF170; MIR4469: 3.95 fold
- Fold Change S100P: 4.36 fold
- Fold Change SERPINB8: 6.07 fold
- Fold Change SETMAR: 3.32 fold
- Fold Change SH2B3: 4.5 fold
- Fold Change SHMT2: 3.22 fold
- Fold Change SLC1A4: 8.26 fold
- Fold Change SLC1A5: 4.04 fold
- Fold Change SLC6A9: 7.78 fold
- Fold Change SLC7A1: 3.19 fold
- Fold Change SLC7A5: 7.31 fold
- Fold Change SLC7A11: 15.27 fold
- Fold Change SLC16A4: 3.65 fold
- Fold Change SLC38A1: 3.03 fold
- Fold Change SLC43A1: 8.25 fold
- Fold Change SLC46A1: 5.39 fold
- Fold Change SLCO1B3: 3.61 fold
- Fold Change ST6GALNAC3: 4.78 fold
- Fold Change STAMBPL1: 3 fold
- Fold Change STPG1: 3.97 fold
- Fold Change SYNPO: 3.2 fold
- Fold Change TADA2A: 3.37 fold
- Fold Change TFF1: 11.81 fold
- Fold Change THOC1: 3.18 fold
- Fold Change TMEM218: 3.29 fold
- Fold Change TNFRSF9: 8.19 fold
- Fold Change TSEN15: 3.5 fold
- Fold Change TUBE1: 5.83 fold
- Fold Change UNC93A: 3.31 fold
- Fold Change WARS: 4.85 fold
- Fold Change WBP4: 3.63 fold
- Fold Change XPA: 3.25 fold
- Fold Change XRCC2: 3.5 fold
- Fold Change YAE1D1: 3.02 fold
- Fold Change ZBED8: 4.58 fold
- Fold Change ZC3H8: 4.04 fold
- Fold Change ZCCHC8: 3.9 fold
- Fold Change ZFAND1: 3.29 fold
- Fold Change ZNF302: 4.83 fold
- Fold Change ZNF518A: 4.12 fold
- Fold Change ZNF780B (first ZNF780B entry): 3.19 fold
- Fold Change ZNF780B (second ZNF780B entry): 3.19 fold
